# In article PMC10960705 (Cell chemical biology, 2023):
# Assays:
# Format in all cases: cell-based
# VLDLR = VLDLR (Homo sapiens, UniProt P98155); experiment: TMT-ABPP competition with DBIA probe in lysate
# KRAS^G12C = KRAS^G12C (Homo sapiens, UniProt P01116, G12C); experiment: TMT-ABPP competition with DBIA probe in HCC44 lysate, […], […] hr
# [1] = biological target: peptidyl-prolyl cis/trans isomerase PIN1 (Homo sapiens, UniProt Q13526); experiment: TMT-ABPP dose-response competition with DBIA probe in lysate
# Sequence of peptidyl-prolyl cis/trans isomerase PIN1 (Q13526 whole entry): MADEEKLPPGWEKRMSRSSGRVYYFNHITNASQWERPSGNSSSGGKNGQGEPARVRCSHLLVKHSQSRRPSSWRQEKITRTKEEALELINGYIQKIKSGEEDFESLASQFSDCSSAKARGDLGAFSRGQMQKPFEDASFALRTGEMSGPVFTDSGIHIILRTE
compound,measurement,setting,value
"C=CC(=O)N1CCCC(n2ccnn2)CC1 (stereo not drawn) [AC19, 1-(4-(1H-1,2,3-triazol-1-yl)azepan-1-yl)prop-2-en-1-one]",TMT-ABPP competition with DBIA probe in lysate,VLDLR,reside in their respective EGF-like domains and were all exclusively and significantly engaged by AC19
C=CC(=O)N1CCN(c2ncnc3c(F)c(-c4c(O)cccc4F)c(Cl)cc23)CC1 [ARS-1620],"TMT-ABPP competition with DBIA probe in HCC44 lysate, 50 μM, 1 hr",KRAS^G12C,2.7 competition ratio (CR) at 50 μM
CC(C)(C)CN(C(=O)CCl)C1CCS(=O)(=O)C1 (stereo not drawn) [Sulfopin],TMT-ABPP dose-response competition with DBIA probe in lysate,[1],Sulfopin is the most potent among the four whereas CL41 is the least
